The values below come from ChEMBL document CHEMBL5150060 (J Med Chem, 2022).

One series concerns the target Histone deacetylase 1 (Homo sapiens, UniProt Q13547). The experiment in a line: Inhibition of recombinant human HDAC1 using p53 (Ac-RHKK(Acetyl)-AMC) as substrate preincubated for 5 mins followed by substrate addition and measured after 90 mins by fluorescence based analysis.
Series [1] addresses T1, Histone deacetylase 8 (Homo sapiens) (UniProt Q9BY41).
T1 sequence (whole entry): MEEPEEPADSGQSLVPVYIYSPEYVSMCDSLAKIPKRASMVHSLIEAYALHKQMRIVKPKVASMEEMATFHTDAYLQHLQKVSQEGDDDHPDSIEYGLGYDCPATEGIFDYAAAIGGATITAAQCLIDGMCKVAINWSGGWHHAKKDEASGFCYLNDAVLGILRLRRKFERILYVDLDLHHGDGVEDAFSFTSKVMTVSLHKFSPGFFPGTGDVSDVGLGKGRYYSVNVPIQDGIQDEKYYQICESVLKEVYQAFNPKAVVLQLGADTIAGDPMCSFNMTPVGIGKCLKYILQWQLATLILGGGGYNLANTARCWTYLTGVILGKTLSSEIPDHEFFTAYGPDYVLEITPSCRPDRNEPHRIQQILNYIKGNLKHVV
The series can be described thus: Inhibition of HDAC8 in human Jurkat T cells assessed as upregulation of IL5 expression at 10 uM after 6 to 12 hrs by RT-qPCR analysis. It counts as cell-based. Conditions: time 6-12 hrs. For orientation: In qPCR the cycle at which signal appears reflects the starting amount.

Series [2] concerns the target T1, Histone deacetylase 8 (Homo sapiens). The experiment in a line: Inhibition of HDAC8 in human Jurkat T cells assessed as upregulation of IL23 expression at 10 uM after 6 to 12 hrs by RT-qPCR analysis. Conditions: time 6-12 hrs. It counts as cell-based.
For series [3] the target is unchanged. The series can be described thus: Inhibition of HDAC8 in human Jurkat T cells assessed as upregulation of […] expression at 10 uM after 6 to 12 hrs by RT-qPCR analysis. It counts as cell-based. Conditions: time 6-12 hrs.
Series [4] shares this target. The series can be described thus: Inhibition of HDAC8 in human Jurkat T cells assessed as upregulation of IL15 expression after 6 hrs by RT-qPCR analysis. It counts as cell-based. Conditions: dose 0.1-10 µM, DDE = dose-dependent effect.
For series [5] the target is unchanged. The series can be described thus: Inhibition of HDAC8 in human Jurkat T cells assessed as upregulation of KLRG1 expression after 6 hrs by RT-qPCR analysis. It counts as cell-based. Conditions: dose 0.1-10 µM, DDE = dose-dependent effect.
The target is the same in series [6]. The experiment in a line: Inhibition of HDAC8 in human Jurkat T cells assessed as upregulation of PRDM1 expression after 6 hrs by RT-qPCR analysis. Conditions: dose 0.1-10 µM, DDE = dose-dependent effect. In kind it is cell-based.
The target of series [7] is T2, Protein deacetylase HDAC6 (Mus musculus) (UniProt Q9Z2V5).
T2 sequence (whole entry): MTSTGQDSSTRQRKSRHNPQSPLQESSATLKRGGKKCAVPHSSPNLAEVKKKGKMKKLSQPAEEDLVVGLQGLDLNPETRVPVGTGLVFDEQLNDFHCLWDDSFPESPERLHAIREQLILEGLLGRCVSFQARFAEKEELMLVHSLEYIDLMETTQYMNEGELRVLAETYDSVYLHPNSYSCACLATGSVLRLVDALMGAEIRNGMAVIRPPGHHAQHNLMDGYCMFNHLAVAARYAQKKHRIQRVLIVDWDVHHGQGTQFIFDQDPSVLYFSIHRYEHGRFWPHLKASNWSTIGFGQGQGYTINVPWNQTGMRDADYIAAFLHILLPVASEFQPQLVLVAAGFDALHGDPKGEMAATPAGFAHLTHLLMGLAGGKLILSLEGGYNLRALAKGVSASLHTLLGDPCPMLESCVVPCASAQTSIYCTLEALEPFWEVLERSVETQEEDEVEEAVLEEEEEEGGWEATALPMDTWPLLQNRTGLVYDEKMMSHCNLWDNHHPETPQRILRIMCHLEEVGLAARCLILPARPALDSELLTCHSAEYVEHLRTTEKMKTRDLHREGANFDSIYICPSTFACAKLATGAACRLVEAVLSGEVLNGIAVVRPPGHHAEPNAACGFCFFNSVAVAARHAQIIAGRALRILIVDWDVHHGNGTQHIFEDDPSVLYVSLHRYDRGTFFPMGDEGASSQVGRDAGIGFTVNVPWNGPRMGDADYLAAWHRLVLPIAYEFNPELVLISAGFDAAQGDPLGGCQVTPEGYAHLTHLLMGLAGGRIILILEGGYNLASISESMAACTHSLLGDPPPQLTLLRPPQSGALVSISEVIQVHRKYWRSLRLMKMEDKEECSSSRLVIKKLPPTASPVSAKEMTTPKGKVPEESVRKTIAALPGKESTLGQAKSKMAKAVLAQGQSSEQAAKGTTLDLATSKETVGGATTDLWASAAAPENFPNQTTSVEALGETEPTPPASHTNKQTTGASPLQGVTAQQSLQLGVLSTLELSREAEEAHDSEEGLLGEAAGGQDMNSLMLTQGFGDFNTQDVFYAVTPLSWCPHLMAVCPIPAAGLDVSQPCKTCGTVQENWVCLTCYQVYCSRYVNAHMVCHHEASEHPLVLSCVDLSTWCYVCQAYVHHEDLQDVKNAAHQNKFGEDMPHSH
The experiment in a line: Inhibition of HDAC6 in mouse spleen CD4+ T- lymphocytes assessed as increase in H3K27 acetylation level at 5 to 10 uM after 6 hrs by Western blot analysis. Conditions: CD4+ve Th, dose 5-10 µM. It counts as cell-based. Background: In western blotting, separated proteins are transferred to a membrane and probed.

In series [8] the target is T2, Protein deacetylase HDAC6 (Mus musculus). The series can be described thus: Inhibition of HDAC6 in mouse spleen CD4+ T- lymphocytes assessed as increase in SMC3 acetylation level at 5 to 10 uM after 6 hrs by Western blot analysis. In kind it is cell-based. Conditions: CD4+ve Th, dose 5-10 µM.
The subject of a further series is Mus musculus. The experiment in a line: Immuno-modulatory activity in C57BL/6 mouse assessed as increase in proportion of CD3+ cells in spleen at 10 mg/kg, ip administered 5 days per week for 2 weeks by flow cytometry analysis. In kind it is functional, organism-based. In general terms: A flow cytometer gives signals particle by particle.
A short description of series [9]: Toxicity in C57BL/6 mouse assessed as change in lung weight at 5 to 10 mg/kg, ip administered 5 days per week for 2 weeks by H and E staining based assay. In kind it is organism-based. Conditions: in vivo, 336 h, dose 5-10 mg/kg.

Active and inactive are the calls of the source. The rule behind the calls is not given here.

Sequence of Histone deacetylase 1 (Q13547 whole entry): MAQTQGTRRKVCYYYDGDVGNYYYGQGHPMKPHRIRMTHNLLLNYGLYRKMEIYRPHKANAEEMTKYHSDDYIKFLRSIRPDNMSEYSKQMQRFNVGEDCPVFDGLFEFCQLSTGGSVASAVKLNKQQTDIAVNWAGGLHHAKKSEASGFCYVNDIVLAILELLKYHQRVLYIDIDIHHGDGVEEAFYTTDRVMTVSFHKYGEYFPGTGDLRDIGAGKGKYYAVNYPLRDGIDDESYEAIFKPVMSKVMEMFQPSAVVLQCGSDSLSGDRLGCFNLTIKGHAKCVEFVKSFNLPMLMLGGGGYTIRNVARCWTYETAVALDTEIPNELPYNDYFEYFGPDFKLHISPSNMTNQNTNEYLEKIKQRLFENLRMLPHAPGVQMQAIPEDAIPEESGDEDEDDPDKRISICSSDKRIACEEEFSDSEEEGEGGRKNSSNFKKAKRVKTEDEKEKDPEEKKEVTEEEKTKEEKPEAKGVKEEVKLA

Regarding `CCCCCCNNC(=O)c1ccc(-c2ccc(CNC(C)=O)cc2)cc1`, the IC50 – broadly, the concentration at which inhibition is half-maximal – on Histone deacetylase 1 was 1800 nM. The inhibition result in series [1], in [2], in series [3], in series [7] and in [8] was “Active” each time. The inhibition entry in [4], in series [5] and in series [6] was “Dde” each time. In addition, the outcome in the series with Mus musculus was Active. In addition, the Activity result in series [9] is on record as “Non-Toxic”.
